Legend:
[1] = tested on: GST Ya (α class); test: Western blot of GST Ya (α-type) expression in H4IIE cells; format: cell-based, rat; conditions: for GST Ya (α) induction: H4IIE cells
Protocol: Western Blot Analysis Glutathione S-transferase Expression. Cultured H4IIE rat hepatoma cells were treated with test agent with various concentrations or various time points. […] Cells were harvested using SDS lysis buffer (20 mM Tris-Cl, pH 6.8, containing 0.4% SDS (w/v), 4% glycerol, 0.24 M β-mercaptoethanol, and 0.5% bromphenol) and the lysates were boiled for 5 minutes, then stored at -20° C. An aliquot of lysate was used for protein determination using a bicichoninic acid protein assay kit with BSA as a standard. Equivalent amounts of protein were electrophoresed by SDS-PAGE on precast 12.5% Tris-glycine acrylamide gels (Novex, San Diego, Calif.), then transferred to polyvinylidene difluoride (PDVF) membranes. Nonspecific binding sites were blocked with 10% nonfat dry milk and blotting was performed with goat polyclonal antirat GSTYa (α class) IgG or antirat, GSTYb (μ class) IgG and analyzed by alkaline phosphatase-conjugated antigoat IgG secondary antibody (Oxford Biomed Research, Inc.) and quantified using an AP 20 Alkaline Phosphatase Kit detection system (Oxford Biomed Research, Inc.).
Induction of Expression of Glutathione S-transferase Ya (α-type) and Yb (μ-type) in Cell Cultures. […] To date, the superfamily of mammalian cytosolic GST isozymes has been defined genetically to consist of four classes; α, μ, π, and θ, which differ in tissue-specificexpression and distribution, as well as substrate specificity. […] Cultured H4IIE cells were treated either with 10 μM of 4'-BF (FIG. 7B) or sulforaphane for 0, 2, 4, 8, 16, 24, and 48 hours for a time-dependent study, or with 0.16, 0.8, 4, 10, 20, and 50 μM of 4'-BF (FIG. 7A) or sulforaphane for 24 hr for a dose-dependent study (FIG. 7A). The expressions of two major detoxification isoforms of GSTs (GST Ya: α-type, and GST Yb: μ-type) mediated by 4'-BF or sulforaphane were investigated in H4EII rat hepatoma cells using Western blotting technique.

[2] = biological target: T1, cytochrome P4501A1 (Rattus norvegicus, UniProt P00185); test: biochemical
T1 sequence (P00185 1-524): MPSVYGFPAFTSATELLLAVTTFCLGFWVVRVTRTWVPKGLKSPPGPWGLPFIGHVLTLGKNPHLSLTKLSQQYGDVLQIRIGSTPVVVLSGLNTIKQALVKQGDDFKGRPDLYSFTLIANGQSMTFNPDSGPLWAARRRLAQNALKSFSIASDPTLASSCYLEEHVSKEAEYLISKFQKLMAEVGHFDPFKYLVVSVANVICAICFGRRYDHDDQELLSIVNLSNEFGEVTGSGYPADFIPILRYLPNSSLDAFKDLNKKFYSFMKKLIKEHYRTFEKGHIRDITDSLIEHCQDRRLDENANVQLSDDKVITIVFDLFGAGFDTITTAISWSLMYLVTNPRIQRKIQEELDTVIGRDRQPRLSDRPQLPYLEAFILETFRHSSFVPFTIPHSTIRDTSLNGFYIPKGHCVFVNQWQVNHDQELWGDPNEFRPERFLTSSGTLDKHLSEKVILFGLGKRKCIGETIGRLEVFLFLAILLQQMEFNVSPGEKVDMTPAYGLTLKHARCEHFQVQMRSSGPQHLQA
Protocol: Inhibition of DMBA-induced Cytochrome P4501A1 Activity. Female Sprague Dawley rats (43 days of age) were treated with DMBA (i.g.), and liver microsomes were isolated through differential centrifugation. Cytochrome P4501A1 activity was monitored by assessing EROD activity. Briefly, 200 μl of microsomal protein (2 mg/ml) were added to a reaction mixture containing 640 μl of 0.05 M Tris-HCl buffer (pH 7.5), 100 μl of BSA (10 mg/ml in Tris buffer), 20 μl of 0.25 M MgCl2, 40 μl of cofactor solution (0.3282 g of NADP and 1.417 g of glucose 6-phosphate in 40 ml of 1.15% KCl), 2.5 units of glucose 6-phosphate dehydrogenase, 10 μl of substrate (1 mg of ethoxyresorufin in 10 ml of methanol) and 10 μl of various concentrations of 4'-BF in DMSO (α-naphthoflavone as positive control; DMSO as negative control). After incubating at 37° C. for 4 min, the reactions were terminated by the addition of 2 ml of methanol. Samples were then centrifuged for 20 min at 2,000×g. and 200 μl of the supernatant fractions were transferred to 96-well plates and read on a spectrofluorimeter (500 nm excitation and 585 nm emission). Assays were conducted in triplicate and the percent of inhibition was calculated as: [1-(sample A-blank)/(DMSO A-blank)]×100.

[3] = tested on: glutathione (GSH) level; test: Glutathione (GSH) level in rat tissues after dietary administration; format: in vivo, Sprague Dawley rat
Protocol: Analysis of Quinone Reductase Activity and Glutathione Level in Rat Tissues. Spraque Dawley rats (n=10) at 43 days of age were placed on an appropriate experimental diet (5000, 2500, 1250, 625, and 312.5 mg/kg diet of 4'-BF) for three weeks. After three weeks, animals were sacrificed by carbon dioxide (CO2) asphyxiation. The livers, mammary glands, colons, stomachs, and lungs were collected, rinsed with saline, and frozen in liquid nitrogen and stored at -80° C. until enzyme activities were determined. Individual tissues (except mammary glands) were homogenized in 0.25 M sucrose and centrifuged at 15,000×g for 30 min at 4° C. The supernatant fluids were collected, 20% volume of 0.1 M CaCl2 in 0.25 M sucrose were added. After incubation at 0° C. for 30 min and further centrifuging at 15,000×g for 30 min at 4° C., a clear cytosolic fraction was used for enzyme assay. Mammary glands of each animal were pooled, homogenized in 1 ml ice-cold 0.1 M phosphate buffer pH 6.5 and centrifuged (15,000×g, 30 min at 4° C.), a clear supernatant suitable for enzyme assay resulted. Dicumarol-sensitive QR activity was measured in duplicate in 50 μl of suitable dilution of the tissue supernatant as described for the cellular system. GSH levels were assayed in duplicate using 96-well plates. […] The plates were shaken for 5-10 min and the extent of 2-nitro-5-thiobenzoic acid formation was monitored at 405 nm. A GSH standard curve was used to calculate the GSH content. GSH levels were expressed as nmol/mg protein.
Induction of Quinone Reductase Activity and Glutathione Level in Rat Tissues. Based on the results in cell cultures, 4'-BF was further evaluated for its inducing potency in rat liver, mammary gland, colon, stomach, and lung. […] The concentration of 4'-BF for maximum induction of GSH was about 1250 to about 2500 mg/kg diet, but varied for different organ sites.

`O=c1cc(-c2ccc(Br)cc2)oc2ccccc12` [4'-Bromoflavone] was tested, and the “maximum induction time, GST Ya” value ([1]; 10 μM, 0-48 h) was 16 to 24 h, the “maximum induction concentration, GST Ya” value ([1]; 0.16-50 μM, 24 h) was 10 to 20 µM and the “GST Ya (α) induction” value [1] was “effectively induced”. The “GST Ya (α) induction” value ([1]; listed as 4'-BF) was “induced by 4'-BF in a time, dose-dependent manner”, the IC50 [2] was 860 nM and the “GSH level increase, colon” value ([3]; colon, dietary) was 1.40-1.72 fold. The “glutathione levels in rat tissues” value ([3]; liver, mammary gland, colon, stomach, lung, short-term dietary, P<0.0001) was “significantly increased”, the “GSH level increase, liver” value ([3]; liver, dietary) was 1.62-1.83 fold and the “GSH level increase, lung” value ([3]; lung, dietary) was 1.09-1.42 fold. The “GSH level increase, mammary gland” value ([3]; mammary gland, dietary) was 1.01-1.28 fold and the “GSH level increase, stomach” value ([3]; stomach, dietary) was 1.16-1.17 fold.

Reference: US6046231A, “Use of 4'-bromoflavone in a cancer chemopreventative composition and method” (The Board of Trustees of the University of Illinois, priority 1999, dated 2000)
